Test results from publication PMC10545747, “Development of cyclopeptide inhibitors of cGAS targeting protein-DNA interaction and phase separation” (Nature Communications, 2023).
Values joined by “and” are separate entries in the source; they are usually repeats but may differ in a detail not shown here. Equal entries are not always repeated. Square brackets hold non-standard residues; d marks the D form. Peptide text beside a SMILES is read from it.

Key:
[1] = tested on: macrophage RAW264.7 cells; test: qPCR of Ifnb1/Cxcl10/Il6 mRNA in RAW264.7 cells (ISD or HSV-1); type: cell-based, mouse; set-up: key to Ifnb1 mRNA (Fig. S2c) / Cxcl10 mRNA (Fig. S2c) / Ifnb1 mRNA (Fig. S2d) / Cxcl10 mRNA (Fig. S2d) / Ifnb1 mRNA (Fig. S7g) / Cxcl10 mRNA (Fig. S7g) / Il6 mRNA (Fig. S7g): mRNA level normalized to GAPDH (relative expression)
Protocol: The indicated cells were stimulated with either ISD (Sangon Biotech), HSV-1 (Provided by Dr. Zhengfan Jiang), HSV60mer (Sangon Biotech), SATE-cddA[70], 2’3’-cGAMP (Invivogen, Cat# tlrl-nacga23-1), ADU-S100 (MedChemExpress, Cat# HY-12885A) or Poly(I:C) (Invivogen, Cat# tlrl-pic) after XQ2 or XQ2B treatment. Total RNA was isolated from indicated cells that incubated with the drugs for indicated time or mice tissues by using NucleoZOL reagent (MACHEREY-NAGEL) according to the manufacturer’s instructions. The quantifications of mRNA levels were carried out by real-time PCR using a PerfectStart® Uni RT&qPCR Kit (TransGen Biotech) on the QuantStudio 5 qPCR machine (Applied Biosystems). Samples were carried out in triplicate and the target CT values were normalized to GAPDH CT values. Primers of qPCR used in this study can be found in Supplementary Table S2. […]
(c) L929, p = 0.0005 (Ifnb1),
BMDMs, p = 0.0001 (Ifnb1), p < 0.0001 (Cxcl10).
representative of three independent experiments in (a-g). (Data are presented as mean ± SD, n = 3 independent
Source data are provided as a Source Data file.

L929 cells = test: ISD-induced autophagy, LC3-II immunoblotting; type: cell-based, mouse
Protocol: Total cell lysates were prepared in RIPA lysis buffer (Beyotime Biotechnology) supplemented with 1 mM PMSF and 1× protease inhibitor cocktail (Yeasen), and nuclear protein was extracted by nuclear protein extraction kit (Solarbio) in accordance with the manufacturer’s instructions. The samples were separated by SDS-PAGE and transferred to the PVDF membrane (Millipore). The membranes were incubated with the indicated primary antibodies at 4 °C overnight and then incubated with an HRP-conjugated anti-rabbit IgG antibody (Cell Signaling, Cat# 7074, 1:5000) or anti-mouse IgG antibody (Cell Signaling, Cat# 7076, 1:5000) at room temperature for 1 h. The signal was visualized by using the NcmECL Ultra kit (New Cell & Molecular Biotech) and then was exposed by using MiniChemi (SageCreation).
Supplementary Fig. 3. […] (a) L929 cells were pretreated for
4 h with DMSO or the indicated doses of XQ2, followed by stimulation with dsDNA for 4 h, and then cell lysates were
(b) Jurkat cells were exposed to the indicated doses of XQ2, and then stimulated with
Data are representative of three independent experiments in (a, b). (Data are presented as mean ± SD, n = 3 independent
provided as a Source Data file.
(1 picture or pasted object on this page, not shown here)

[2] = tested on: dsDNA-stimulated THP1 cells; test: qPCR of IFNB1/CXCL10/IL6 mRNA in THP1 cells stimulated by dsDNA (ISD, HSV60mer); type: cell-based, human; settings: for IFNB1 mRNA level (Fig. S7c): XQ2B; for Relative mRNA level CXCL10 (Fig. S7d) / Relative mRNA level IFNB1 (Fig. S7d) / Relative mRNA level IL6 (Fig. S7d): ISD +

`CC(C)C[C@@H]1NC(=O)[C@H](CCCNC(=N)N)NC(=O)[C@H](C(C)C)NC(=O)[C@@H]2CCCN2C(=O)[C@@H](Cc2ccccc2)NC(=O)[C@H](CC(C)C)NC(=O)[C@H](CCCNC(=N)N)NC(=O)[C@H]([C@@H](C)O)NC(=O)[C@H](C)NC(=O)[C@@H](Cc2ccccc2)NC1=O` [XQ2B] (cyclo([dF]ATRL[dF]PVRL)) was tested, and the “Cxcl10 mRNA (Fig. S7g)” value ([1]; ISD+XQ2B) was 1166.92 and 1221.79 and 1328.72, the “Ifnb1 mRNA (Fig. S7g)” value ([1]; ISD+XQ2B) was 1896.14 and 2591.99 and 2490 and the “Il6 mRNA (Fig. S7g)” value ([1]; ISD+XQ2B) was 1526.53 and 1838.42 and 1588.85. The “Cxcl10 mRNA (Fig. S7g)” value ([1]; XQ2B alone) was 2.509 and 2.275 and 2.115, the “Ifnb1 mRNA (Fig. S7g)” value ([1]; XQ2B alone) was 1.291 and 1.1996 and 1.38 and the “ISD-induced autophagy, LC3-II formation” value (L929 cells) was “markedly reduced ISD-induced autophagy and cell death”. The “IFNB1 mRNA level (Fig. S7c)” value ([2]; HSV60mer) was 40.2098 and 37.8755 and 37.7329, the “Relative mRNA level CXCL10 (Fig. S7d)” value ([2]; XQ2B 0.63 μM) was 75.7262 and 111.48 and 109.732 and the “Relative mRNA level IFNB1 (Fig. S7d)” value ([2]; XQ2B 0.63 μM) was 143.341 and 159.417 and 146.307. For the same compound, the “Relative mRNA level IL6 (Fig. S7d)” value ([2]; XQ2B 0.63 μM) was 4.851 and 5.001 and 4.853, the “Relative mRNA level CXCL10 (Fig. S7d)” value ([2]; XQ2B 1.25 μM) was 71.0232 and 80.5931 and 82.552 and the “Relative mRNA level IFNB1 (Fig. S7d)” value ([2]; XQ2B 1.25 μM) was 150.862 and 127.331 and 129.696. For the same compound, the “Relative mRNA level IL6 (Fig. S7d)” value ([2]; XQ2B 1.25 μM) was 5.209 and 4.534 and 5.634, the “Relative mRNA level CXCL10 (Fig. S7d)” value ([2]; XQ2B 2.5 μM) was 65.3896 and 90.4406 and 75.1347 and the “Relative mRNA level IFNB1 (Fig. S7d)” value ([2]; XQ2B 2.5 μM) was 125.32 and 106.736 and 118.852. The “Relative mRNA level IL6 (Fig. S7d)” value ([2]; XQ2B 2.5 μM) was 3.096 and 3.258 and 2.284, the “Relative mRNA level CXCL10 (Fig. S7d)” value ([2]; XQ2B 5 μM) was 49.8503 and 48.6212 and 43.7599 and the “Relative mRNA level IFNB1 (Fig. S7d)” value ([2]; XQ2B 5 μM) was 64.7201 and 61.5772 and 71.2108. For the same compound, the “Relative mRNA level CXCL10 (Fig. S7d)” value ([2]; XQ2B 10 μM) was 34.1653 and 30.6356 and 36.3338, the “Relative mRNA level IFNB1 (Fig. S7d)” value ([2]; XQ2B 10 μM) was 33.5888 and 35.227 and 34.4163 and the “Relative mRNA level IL6 (Fig. S7d)” value ([2]; XQ2B 10 μM) was 0.9806 and 0.7505 and 1.24. For the same compound, the “Relative mRNA level CXCL10 (Fig. S7d)” value ([2]; XQ2B 20 μM) was 10.6053 and 10.5964 and 12.3293, the “Relative mRNA level IFNB1 (Fig. S7d)” value ([2]; XQ2B 20 μM) was 3.764 and 4.346 and 4.187 and the “IFNB1 mRNA level (Fig. S7c)” value ([2]; ISD) was 15.0362 and 16.705 and 17.0928. The “IFNB1 mRNA level (Fig. S7c)” value ([2]; Mock) was 1.262 and 0.9081 and 0.8724 and the “dsDNA/ISD-induced IFNB1, CXCL10, IL6 expression” value ([2]; THP1) was “comparable cGAS inhibitory effect as that of XQ2”.
